From ChEMBL document CHEMBL5584311, “Antiviral Chlorinated Drimane Meroterpenoids from the Fungus Talaromyces pinophilus LD-7 and Their Biosynthetic Pathway” (J Nat Prod, 2024)

Legend:
A549 = assay: Cytotoxicity against human A549 cells; type: functional
[1] = Cytotoxicity against human HO-8910 cells; type: functional
HCT-116 = assay: Cytotoxicity against human HCT-116 cells; type: functional
HL-60 = assay: Cytotoxicity against human HL-60 cells; type: functional
MDA-MB-231 = assay: Cytotoxicity against human MDA-MB-231 cells; type: functional
SH-SY5Y = assay: Cytotoxicity against human SH-SY5Y cells; type: functional
MGC-803 = assay: Cytotoxicity against human MGC-803 cells; type: functional
K562 = assay: Cytotoxicity against human K562 cells; type: functional
[2] = Cytotoxicity against human MCF7/ADM cells; type: functional
U-87 MG = assay: Cytotoxicity against human U87 cells; type: functional, U-87MG ATCC
Bel-7402 = assay: Cytotoxicity against human Bel-7402 cells; type: functional
NCI-H1975 = assay: Cytotoxicity against human NCI-H1975 cells; type: functional
[3] = tested on: Vesicular stomatitis virus; assay: Antiviral activity against Vesicular stomatitis virus infected in African green monkey Vero cells assessed as inhibition of cytopathic effect pre-infected with cells for 12 hrs followed by viral infection and measured after 24 hrs by fluorescence based CPE reduction method; type: functional, organism-based
Hepatitis C virus = assay: Antiviral activity against HCV infected in human Huh7.5 cells stably expressing firefly luciferase by microplate luminometer based analysis; type: functional, organism-based, Hepacivirus hominis

## C[C@@H]1Cc2c3c(cc(O)c2C(=O)O1)O[C@]1(C)CCC[C@](C)([C@H]2C[C@@H](O)C2(C)C)[C@H]1C3
A549
  CC50: 3350 nM
[1]
  CC50: 3350 nM
HCT-116
  CC50: 3350 nM
HL-60
  CC50: 3350 nM
MDA-MB-231
  CC50: 3350 nM
SH-SY5Y
  CC50: 3350 nM
MGC-803
  CC50: 3350 nM
K562
  CC50: 3350 nM
[2]
  CC50: 3350 nM
U-87 MG
  CC50: 3350 nM
Bel-7402
  CC50: 3350 nM
NCI-H1975
  CC50: 3350 nM

## CC(C)C1=CC[C@@]2(C)C(=O)CC[C@@]3(C)Oc4cc(O)c5c(c4C[C@@]32O1)[C@@H](O)[C@@H](C)OC5=O
[3]
  IC50: 970 nM

## CC(C)[C@@]12CC[C@]3(C)[C@]4(Cc5c(cc(O)c6c5[C@@H](O)[C@@H](C)OC6=O)O[C@]4(C)CC[C@]3(O)O1)O2
[3]
  IC50: 430 nM

## CC(C)[C@@]12CC[C@]3(C)[C@]4(Cc5c6c(c(O)c(Cl)c5O[C@]4(C)CC[C@]3(O)O1)C(=O)O[C@H](C)C6)O2
[3]
  IC50: 180 nM

## CC(=O)O[C@@H]1c2c3c(cc(O)c2C(=O)O[C@@H]1C)O[C@]1(C)CC[C@@H]2O[C@@]4(C(C)C)CC[C@]2(C)[C@]1(C3)O4
[3]
  IC50: 490 nM

## CC1=C(O)C(=O)[C@@]23C(C)CC[C@@H]2[C@H](C)CO[C@]32Oc3cc(O)cc(CO)c3C=C12 (stereo not given in full)
Hepatitis C virus
  IC50: 9500 nM

## CC(=O)O[C@@H]1c2c3c(cc(O)c2C(=O)O[C@@H]1C)O[C@]1(C)CCC(=O)[C@]2(C)CC=C(C(C)C)O[C@]12C3
[3]
  IC50: 320 nM

## CC(=O)O[C@@H]1c2c3c(cc(O)c2C(=O)O[C@@H]1C)O[C@]1(C)CC[C@]2(O)C(C)(C)[C@@]4(O)CC[C@]2(C)[C@]1(C3)O4
[3]
  IC50: 190 nM

## CC(C)[C@]12CC[C@@]3(C)[C@H](CC[C@@]4(C)Oc5cc(O)c6c(c5C[C@@]43O1)C[C@@H](C)OC6=O)O2
[3]
  IC50: 910 nM

## C[C@@H]1Cc2c3c(cc(O)c2C(=O)O1)O[C@]1(C)CC[C@H]2C(C)(C)C(=O)CC[C@]2(C)[C@H]1C3
[3]
  IC50: 23 nM

## CC(=O)O[C@@H]1c2c3c(c(Cl)c(O)c2C(=O)O[C@@H]1C)O[C@]1(C)CCC(=O)[C@]2(C)CC=C(C(C)C)O[C@]12C3
[3]
  IC50: 280 nM

## CC(=O)O[C@@H]1c2c3c(c(Cl)c(O)c2C(=O)O[C@@H]1C)O[C@]1(C)CC[C@@H]2O[C@@]4(C(C)C)CC[C@]2(C)[C@]1(C3)O4
[3]
  IC50: 82 nM

## C[C@@H]1Cc2c3c(cc(O)c2C(=O)O1)O[C@]1(C)CC[C@]2(O)C(C)(C)[C@@]4(O)CC[C@]2(C)[C@]1(C3)O4
[3]
  IC50: 130 nM

## C[C@@H]1Cc2c3c(c(Cl)c(O)c2C(=O)O1)O[C@]1(C)CC[C@H]2C(C)(C)C(=O)CC[C@]2(C)[C@@]1(O)C3
[3]
  IC50: 15 nM

## C[C@@H]1Cc2c3c(c(Cl)c(O)c2C(=O)O1)O[C@]1(C)CC[C@]2(O)C(C)(C)[C@@]4(O)CC[C@]2(C)[C@]1(C3)O4
[3]
  IC50: 83 nM

## CC(C)[C@]12CC[C@@]3(C)[C@H](CC[C@@]4(C)Oc5c(Cl)c(O)c6c(c5C[C@@]43O1)C[C@@H](C)OC6=O)O2
[3]
  IC50: 18 nM

## CC(=O)O[C@@H]1c2c3c(cc(O)c2C(=O)O[C@@H]1C)O[C@]1(C)CC[C@]2(O)O[C@@]4(C(C)C)CC[C@]2(C)[C@]1(C3)O4
[3]
  IC50: 570 nM

## CC(=O)O[C@@H]1c2c3c(c(Cl)c(O)c2C(=O)O[C@@H]1C)O[C@]1(C)CC[C@]2(O)O[C@@]4(C(C)C)CC[C@]2(C)[C@]1(C3)O4
[3]
  IC50: 260 nM

## NC(=O)c1ncn([C@@H]2O[C@H](CO)[C@@H](O)[C@H]2O)n1 [RIBAVIRIN]
[3]
  IC50: 46 nM
